Source: patent US8877734B2, “Seleny-methyluracil compounds, radiosensitizer and pharmaceutical composition using them” (Kongju National University Industry-University Cooperation …, priority 2010, dated 2014)
pIC50: −log10 of the molar value.

Tested on: Human lung cancer cell line H460
Assay: Cytotoxicity test on cancer cells (water-soluble tetrazolium salt colorimetric assay)
Assay type: cell-based
Settings: for pIC50: Homo sapiens, NCI-H460, H460 cells, compound alone without radiation, after a lapse of 72 hours, read-out: IC50 value, the concentration where 50% cells are killed; for cytotoxic effect when applied alone: cancer cell line H460, without the combined radiation treatment
Procedure: Human lung cancer cell line H460 was used in the present test. Firstly, the H460 cell line was cultured in RPMI 1640 medium with 100 U/mL of penicillin, […] of streptomycin and 10% FBS, under the condition of 37° C. and 5% CO2 atmosphere. The cultured cells were placed on a 96-well-plate at the initial cell density of about 2×10^3 cells. In about 24 hours, the cells on the 96-well-plate were treated with the compound 1 and the compound 7 at a designated concentration for 48 hours. The relative cell viability was quantitatively determined by a colorimetric assay using a water-soluble tetrazolium salt. Optical density at 450 nm was measured by an automatic micro plate reader. The results were represented in FIGS. 1 and 2 in the drawings attached to the present specification. As shown in the test example 1, FIG. 1 and FIG. 2, the lung cancer cell line (H460) was treated with the compound 1 (MeSe-T), then after a lapse of 72 hours, IC50 value thereof, that is the concentration where 50% cells are killed, were about 100 μM.

SMILES	pIC50	cytotoxic effect when applied alone
C[Se]Cc1cn([C@H]2CC(O)[C@@H](CO)O2)c(=O)[nH]c1=O (stereo partly shown) [compound 1, 5-methylselenyl-methyl-2′-deoxy uridine]	~4.00	weak cytotoxic effect
O=c1[nH]c(=O)n([C@H]2CC(O)[C@@H](CO)O2)cc1C[Se]c1ccccc1 (stereo partly shown) [compound 7, 5-phenylselenyl-methyl-2′-deoxy uridine]	~3.30	weak cytotoxic effect
